The test system of series [1] is Fluc/GFP-Rb-1 cells. Description: In vivo safety evaluation in orthotopic tumor-bearing mouse model.
Experimental: Before the experiments, the healthy male Balb/c-nude mice (4 weeks old) were subjected to ophthalmic examination to ensure the normal eyes. Amobarbital sodium (40 mg/kg) was injected intraperitoneally to the mice for general anesthesia, the commercially available 0.4% oxybuprocaine hydrochloride eye drops were administrated to the surface of the eyes for local anesthesia of the eye surface, and the commercially available 0.5% tropicamide eye drops were administrated for pupil dilation. The Fluc/GFP-Rb-1 cells (resuspended in 10 mM PBS at a density of 1×10^4 cells/μL) were injected into the vitreous body of the mice via a micro-syringe (33 G, Hamilton), 2 μL cell suspension for each eye.
For the tumor-bearing mice, administration was performed by ocular surface dropping.
Detection scheme: At the end of 1 month administration, the mice were euthanized by an overdose of anesthesia (anaobarbital sodium, 150 mg/kg). The cardiac perfusion was performed sequentially with normal saline and 4% paraformaldehyde. The eyeballs, hearts, liver, spleen, lung, kidney, brain and other organs were harvested and dehydrated overnight in 15% and 30% sucrose solutions gradient. The HE stained sections and immunohistochemical sections were made and observed.
Series [2] in a line: Hematology safety evaluation (complete blood cell count). The format is in vivo, ICR mice. The following applies: eye dropping 2 times a day for 2 weeks. How it is done:
Safety evaluation of 89WP-Mel eye drops: it is likely that the eye drops may be absorbed systemically, while the chemotherapeutic drug melphalan may cause systemic toxicity. The representative side effects include bone marrow suppression, etc. Thus, hematology evaluation was performed in the administration groups to determine the safety of the eye drops. Healthy male ICR mice (18-20 g) were subjected to the administration according to the regimen of pharmacodynamic evaluation experiment, wherein the frequency of eye dropping the normal saline, melphalan solution, and 89WP-Mel solution was changed to 2 times a day for 2 weeks, and the melphalan intravitreal injection was performed once a week. At the end of administration, 200 μL of whole blood was taken, anticoagulated with EDTA, and subjected to a complete blood cell count.

For series [3], the system named is HCEC cells. Description: cells. The format is cell-based. The following applies: 4 hrs co-incubation then 24 h fresh medium, MTT. How it is done:
The survivals of the HCEC, ARPE-19 and WERI-Rb-1 cells after co-incubation with polypeptides or conjugates were investigated by the MTT or CCK-8 methods (n=4). The HCEC or ARPE-19 cells were co-incubated with polypeptides or conjugates for 4 hrs, followed by incubation in fresh medium for 24 h before addition of MTT for detection. The WERI-Rb-1 cells were co-incubated with the polypeptides or conjugates for 4 hrs, and then CCK-8 was added directly for detection. The cells under normal culture conditions were used as negative control (100% survival).
(§1) The ARPE-19 and WERI-Rb-1 cells with good growth status in the logarithmic phase were placed on 96 well plates at a density of 2000 cells/well. After incubation for 24 hrs, the drug solutions at different concentrations were added. The ARPE-19 cells were incubated at 37° C. for 4 hrs. Then, the drug solutions were discarded. The plates were washed with PBS thrice. The fresh medium was then added and incubated for 24 h. Then, 0.5 mg/mL MTT was added and incubated at 37° C. for 4 hrs. The culture solution was discarded. To each well DMSO (150 μl) was added, and the plates were shaken on a shaker for 20 min. Then, the OD490nm value was measured. For the WERI-Rb-1 cells, they were incubated with drug solutions for 4 hrs, and CCK-8 reagent (10 μL) was added to each well. The plates were incubated at 37° C. for 2 hrs. The OD490nm value was measured directly. In addition, zero_adjustment wells and negative control wells (cell survival rate 100%) were set.

Series [4] can be described thus: Solubility assay in normal saline (HPLC). Format: physicochemical. The following applies: 37° C. How it is done: Liquid chromatography detection conditions for melphalan: column: YMC-Pack ODS-A column (150×4.6 mm, 5 μm); mobile phase: 40% acetonitrile solution; flow rate: 0.7 mL/min; column temperature: 25° C.; detection wavelength: 260 nm; injection volume: 10 μL.
Solubility assay: melphalan 0.1 mg was accurately weighted and dispersed in 1 mL normal saline, ultrasonicated for 5 min, incubated at 37° C. for 24 hrs, and filtered through 0.22 μm filter membrane. The peak area of the sample was obtained by liquid chromatography. The concentration of the sample was calculated by substituting the peak area in the standard curve equation.
Liquid chromatography detection conditions for 89WP-Mel and 289WP-Mel: column: YMC-Pack ODS-A column (150×4.6 mm, 5 μm); mobile phase: 5-65% acetonitrile (with 0.1% TFA), 30 min; flow rate: 0.7 mL/min; column temperature: 25° C.; detection wavelength: 214 nm; injection volume: 10 μL.
Solubility assay: The excess amount of 89WP-Mel or 289WP-Mel was dispersed in 60 μL normal saline, ultrasonicated for 5 min, incubated at 37° C. for 24 hrs, filtered through 0.22 μm filter membrane, and then diluted 10 times and 20 times respectively. The peak area of the samples was obtained by liquid chromatography. The concentration of the samples was calculated by substituting the peak area in the standard curve equation.
The samples were incubated in normal saline at 37° C. and 160 rpm for 24 h to obtain the saturated solutions. The solubility of the conjugates is converted to the solubility of melphalan moiety.

For another series, the system named is WERI-Rb-1 cells. The format is cell-based. The following applies: WERI-Rb-1, 4 hrs co-incubation, CCK-8. How it is done: as §1
Series [5] relates to ARPE-19 cells. The format is cell-based. The following applies: ARPE-19, 4 hrs co-incubation then 24 h fresh medium, MTT. How it is done:
as §1

The subject of series [6] is retinoblastoma (Fluc/GFP-Rb-1) cells. Description: Eye drops for treatment of intraocular retinoblastoma, mouse model. Format: in vivo, Balb/c nude mice. The following applies: for mice with obvious tumor areas in the brain sections: 8 mice per group.
Experimental: Construction of retinoblastoma mouse model: the male Balb/c nude mice (18-20 g) were subjected to general anesthesia by intraperitoneal injection of amobarbital sodium (30 mg/kg). The 0.4% oxybuprocaine hydrochloride was administrated for local anesthesia of the eye surface. After the anesthesia, the 0.5% tropicamide was administrated for pupil dilation. The retinoblastoma (Fluc/GFP-Rb-1) cells (resuspended in 2 μL 10 mM PBS, 2×10^4 cells for each mouse) were slowly injected into the vitreous body near retina via a micro-syringe (33 G, Hamilton). After the injection, 0.25% chloramphenicol was dropped to the ocular surface to prevent ocular inflammation. Then, it is determined whether the model was successfully established according to the bioluminescent signal intensity in the eyes of the mice. The successfully established model mice were randomly divided into 4 groups, with 8 mice in each group.
During the 60-day pharmacodynamic evaluation experiment, the dosage regimens for the different mice groups are as follows: Group 1: eye dropping with normal saline once a day, 10 μL for each dropping; Group 2: eye dropping with 3.0 mg/mL melphalan solution once a day, 10 μL for each dropping; Group 3: eye dropping with 89WP-Mel solution (containing 3.0 mg/mL melphalan) once a day, 10 μL for each dropping; Group 4: intravitreal injection with 0.5 mg/mL melphalan solution once every two weeks, 2 μL for each injection.
The method of efficacy evaluation is as follows: on Day 0, 2, 4, 6, 9, 12, 15, 17, 20, 25 and 30 after the administration, the mice in each group were injected intraperitoneally with 150 mg/kg D-Luciferin, followed by anesthesia with isoflurane for 15 min. The bioluminescent signal intensity in the eyes of the mice was detected by IVIS Spectrum system (PerkinElmer, USA).
The subject of series [7] is Fluc/GFP-Rb-1 cells. As to the kind of experiment: Intraocular pharmacodynamic evaluation in tumor-bearing mice. The format is in vivo. How it is done: Specifically, D-luciferin (150 mg/kg) was injected intraperitoneally into each mouse, followed by general anesthesia with isoflurane. Twenty minutes after anesthesia, ocular bioluminescence signals were collected, with 30 seconds exposure time. On the day of administration (D0) and at the corresponding time points after administration, the bioluminescence signals of the mice eyeballs in each group were collected. […] The whole brain tissue was harvested. The immunohistochemical sections were made and observed.

The test system of another series is red blood cells. Description: Ability to lyse red blood cells at different pH. The format is cell-based. How it is done: The red blood cells were resuspended at a density of 7×10^7 cells/mL in incubation medium at different pHs. The cell suspension (75 μL) was mixed with 75 μL of aqueous solution of test sample. Pure water was set as a negative control, and 1 μL Triton X-100 dissolved in 74 μL pure water was set as a positive control. Incubation was performed at 37° C. for 1 h in an air shaker at 200 rpm. After incubation, the samples were centrifugated at 1000 g for 5 min. The supernatant (100 μL) was taken to measure the OD450 nm/750 nm via microplate reader.

In the next series the test system is ARPE-19 cell monolayer. As to the kind of experiment: Penetration across the retinal pigment epithelial cell monolayer model. The following applies: four hours after administration, 3 μM.
The subject of series [8] is ARPE-19 cells. As to the kind of experiment: Intracellular distribution by laser confocal microscope. The format is cell-based. The following applies: ARPE-19, 3 μM, 37° C., 4 hrs.
Experimental: (§2) The HCEC and ARPE-19 cells with good growth status in the logarithmic phase were placed in 4-chamber confocal dishes at a density of 1×10^4 cells/well and incubated for 24 hrs. The drug solutions (all comprising 3 μM fluorescein) were added and incubated at 37° C. for 3.5 hrs. LysoTracker was then added and incubated for 0.5 hrs. Then, the drug solutions were discarded. After being washed with cold 10 mM PBS (containing 0.02 mg/mL heparin sodium) thrice and fixed with 4% paraformaldehyde, the nuclei were stained with DAPI.
Series [9] is described as follows: Ocular pharmacokinetic evaluation after eye dropping. The format is in vivo, mice. How it is done:
The distribution and elimination behavior of the conjugates in the eye tissues was investigated by dropping the drugs into the conjunctival sac of the mice. The conjugate solution 10 μL (at a concentration of 30 μM) was dropped into the conjunctival sac of the mice. The eyelids were gently closed to make the solution distributed evenly. […] The eyeballs were taken out and fixed with FAS eyeball fixative solution for 24 hours, dehydrated with 15% and 30% sucrose solution gradients, and then embedded in OCT to prepare 8 μm thick eyeball frozen sections. The cell nuclei were stained with DAPI.

Series [10] deals with HCEC cells. Description: Intracellular distribution by laser confocal microscope. The format is cell-based. The following applies: 3 μM, 37° C., 4 hrs.
Experimental: as §2
The mark [11] stands for this setting: read-out: Solubility of drug-polypeptide conjugate.
The mark [12] stands for this setting: intravitreal injection 0.5 mg/mL.
The mark [13] stands for this setting: saline or isotonic, thermodynamic from solid, read-out: Solubility of drug.
[14] abbreviates: four hours after dropping, 30 μM.

The values that follow come from patent publication US20250375528A1, “CONJUGATE OF CELL-PENETRATING PEPTIDE AND MELPHALAN, AND PREPARATION CONTAINING CONJUGATE” (priority 2021, published 2025).

≈ marks a conversion by molar mass, not a printed value. Like-named read-outs stand apart in the source and are kept apart here. Where a SMILES comes first, the peptide text is derived from it. Where no end group is shown, it is not given here. [ ]: non-standard residue; d: D form. ξ: configuration not given here. ξPhe(4-N(CH2CH2Cl)2) = NC(Cc1ccc(N(CCCl)CCCl)cc1)C(=O)O A value given as a limit tells only on which side of the number the result lay.

Experimental for ARPE-19 cell monolayer: The model in FIG. 8B is obtained by seeding the WERI-Rb-1 cells in good growth state at 2×10^4 cells/well in the lower chamber 24 hours before administration.
Samples (200 μL for each sampling) were taken every 0.5 h from the lower chamber, and 200 μL fresh D-Hank's balanced salt solution was added immediately. A total of 8 samples were taken. The fluorescence signal intensity of the samples was detected with a microplate reader (Ex 490 nm/Em 520 nm).
The calculation formula of the Apparent Permeability Coefficient (Papp) is as follows:
wherein, ΔQ/Δt is the change of the molar amount of the polypeptide across the retinal pigment epithelial cell monolayer model per unit time, which can be obtained from the slope by fitting the cumulative permeability and the diffusion time; C0 is the initial concentration of the polypeptide in the donor cell, which is 3 μM; A is the area of the cornea or sclera exposed to the diffusion medium, i.e., the effective diffusion area, which is 0.825 cm^2.

`CC[C@H](C)[C@H](NC(=O)[C@H](CCCCN)NC(=O)[C@@H](NC(=O)[C@H](CCC(N)=O)NC(=O)[C@@H](N)CCCNC(=N)N)[C@@H](C)CC)C(=O)N[C@@H](Cc1c[nH]c2ccccc12)C(=O)N[C@@H](Cc1ccccc1)C(=O)N[C@@H](Cc1c[nH]c2ccccc12)C(=O)N[C@@H](Cc1c[nH]c2ccccc12)C(=O)N[C@@H](CCCNC(=N)N)C(=O)N[C@@H](CCCNC(=N)N)C(=O)N[C@@H](CCSC)C(=O)N[C@@H](CCCCN)C(=O)N[C@@H](Cc1c[nH]c2ccccc12)C(=O)N[C@@H](CCCCN)C(=O)N[C@@H](CCCCN)C(=O)NC(Cc1ccc(N(CCCl)CCCl)cc1)C(=O)O` (stereo partly drawn) [89WP-Mel] (H-RQIKIWFWWRRMKWKK[ξPhe(4-N(CH2CH2Cl)2)]-OH): the “safety by HE-stained sections of the various organs” value with Fluc/GFP-Rb-1 cells [1] (eye dropping, 1 month) is “safe”. Also, the “platelet count versus normal saline eye dropping group” value in [2] was “did not significantly decrease”. In addition, the “red blood cell count versus normal saline eye dropping group” value in series [2] was “did not significantly decrease”. The “white blood cell count versus normal saline eye dropping group” value in [2] is listed as “did not significantly decrease”. For the same compound, the 50% inhibitory concentration (IC50) in the series with HCEC cells [3] (read-out: IC50) was 147 µM; with WERI-Rb-1 cells it was 280 nM; in the series on ARPE-19 cells [5] (read-out: IC50), 177 µM. Further, the solubility at 24 h in [4] (setting [11]) stood at 44.7 ± 2.62 mg/mL (≈ 16.8 mM).
With `CC[C@H](C)[C@H](NC(=O)[C@H](CCCCN)NC(=O)[C@@H](NC(=O)[C@H](Cc1c[nH]c2ccccc12)NC(=O)[C@@H](N)CCCNC(=N)N)[C@@H](C)CC)C(=O)N[C@@H](Cc1c[nH]c2ccccc12)C(=O)N[C@@H](Cc1ccccc1)C(=O)N[C@@H](Cc1c[nH]c2ccccc12)C(=O)N[C@@H](Cc1c[nH]c2ccccc12)C(=O)N[C@@H](CCCNC(=N)N)C(=O)N[C@@H](CCCNC(=N)N)C(=O)N[C@@H](CCSC)C(=O)N[C@@H](CCCCN)C(=O)N[C@@H](Cc1c[nH]c2ccccc12)C(=O)N[C@@H](CCCCN)C(=O)N[C@@H](CCCCN)C(=O)NC(Cc1ccc(N(CCCl)CCCl)cc1)C(=O)O` (stereo partly drawn) [289WP-Mel] (H-RWIKIWFWWRRMKWKK[ξPhe(4-N(CH2CH2Cl)2)]-OH; N-terminus assumed), the solubility at 24 h in [4] (setting [11]) came to 41.8 ± 1.39 mg/mL (≈ 15.4 mM).
For the compound `N[C@@H](Cc1ccc(N(CCCl)CCCl)cc1)C(=O)O` [melphalan], the “size of the vitreous seeds of intraocular tumors, order of groups” value with Fluc/GFP-Rb-1 cells [1] (melphalan solution 3.0 mg/mL eye dropping) is recorded as “normal saline group≈melphalan solution eye dropping group”. Moreover, the “mice with obvious tumor areas in the brain sections” value in [6] (eye dropping 3.0 mg/mL) was 1; in [6] (setting [12]), 2. Further, the “anti-tumor effect in the first month of administration” value in series [6] (eye drops once a day, 3.0 mg/mL melphalan content) is “no antitumor effect”. Also, the IC50 in the series with HCEC cells [3] (listed as Mel) was 113 µM; in the series on HCEC cells [3] (Homo sapiens), 100 to 200 µM; in the series on ARPE-19 cells [5], 100 to 200 µM; with ARPE-19 cells [5] (listed as Mel), 200 µM. For the same compound, the solubility at 24 h in [4] (setting [13]) was under 0.001 mg/mL. Besides, the solubility thermodynamic at 24 h in series [4] (setting [13]) was under 1 µg/mL. The “mice with obvious brain tumor areas” value in the series with Fluc/GFP-Rb-1 cells [7] (eye dropping 3.0 mg/mL) is recorded as “one”; with Fluc/GFP-Rb-1 cells [7] (setting [12]) it was “two”. Also, the “tumor growth curve versus normal saline eye dropping group” value in the series on Fluc/GFP-Rb-1 cells [7] (eye dropping 10 μl once a day, 3.0 mg/mL melphalan content) was “no significant difference”. Also, the “survival period versus normal saline group” value in the series with Fluc/GFP-Rb-1 cells [7] (intravitreal injection 0.5 mg/mL, 2 μL, once per two weeks) was “no significant difference”.
Turning to RQIKIWFWWRRMKWKK [89WP], the hemolysis ratio with red blood cells (pH 5.5, 40 μM) is reported as 16.4%; with red blood cells (pH 5.5, 640 μM), 45.1%; with red blood cells (pH 6.0, 160 μM), 21.7%; with red blood cells (pH 6.0, 640 μM), 33.3%; in the series on red blood cells (pH 7.4, 640 μM) it was 25.8%; in the series on red blood cells (pH 7.4, low concentration (<320 μM)), “around 10%”.
Turning to carboxyl fluorescein [FAM], the “fluorescence signal at the donor side of the cell monolayer” value with ARPE-19 cell monolayer was “no green fluorescence signal”. Besides, the “fluorescence signal in the cells” value in the series on ARPE-19 cells [8] was “no obvious green fluorescence signal”. Moreover, the “time of peak fluorescence intensity in the retina” value in series [9] (10 μL of 30 μM dropped into conjunctival sac) came to 4 h. Moreover, in series [9] (8 hours after eye dropping), the “retinal fluorescence intensity versus blank retina” value is recorded as “no significant difference”. In series [9] (setting [14]), the “fluorescence signal in anterior ocular segment (cornea), whole eye sections” value is reported as “no obvious green or red fluorescence signal” and the “fluorescence signal in posterior ocular segment (retina), whole eye sections” value was “no obvious green or red fluorescence signal”. In the series on HCEC cells [10], the “fluorescence signal in the cells” value is “no obvious green fluorescence signal”.

A word on the IC50: it is the concentration at which inhibition is half-maximal. As usually defined, the solubility is how much of the substance goes into solution per volume.
